Data from ChEMBL document CHEMBL4507268 (2021).

Legend:
[1] = target: Muscarinic acetylcholine receptor M4 (Homo sapiens) (UniProt P08173); settings: Compound concentration 10.0 uM
[2] = target: Wee1-like protein kinase (Homo sapiens) (UniProt P30291); settings: Compound concentration 1.0 uM
[3] = target: T1, Activin receptor type-1B (Homo sapiens) (UniProt P36896); settings: Compound concentration 1.0 uM
T1 sequence (whole entry): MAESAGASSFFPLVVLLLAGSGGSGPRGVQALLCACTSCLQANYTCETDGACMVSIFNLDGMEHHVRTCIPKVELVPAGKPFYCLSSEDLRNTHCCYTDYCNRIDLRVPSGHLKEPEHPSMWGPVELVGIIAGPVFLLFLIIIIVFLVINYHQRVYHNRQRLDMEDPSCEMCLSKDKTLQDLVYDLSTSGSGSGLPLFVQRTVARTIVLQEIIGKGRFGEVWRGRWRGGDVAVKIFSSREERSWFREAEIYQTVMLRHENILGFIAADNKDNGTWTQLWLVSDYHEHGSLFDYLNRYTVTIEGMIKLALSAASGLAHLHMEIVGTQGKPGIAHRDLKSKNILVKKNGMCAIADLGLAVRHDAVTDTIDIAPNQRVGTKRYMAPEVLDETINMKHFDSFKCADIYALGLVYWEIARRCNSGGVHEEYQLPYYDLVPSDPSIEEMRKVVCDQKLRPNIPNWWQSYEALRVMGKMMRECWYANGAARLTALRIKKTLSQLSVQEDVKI

[4] = target: G protein-coupled receptor kinase 5 (Homo sapiens) (UniProt P34947); settings: Compound concentration 1.0 uM
Chain of G protein-coupled receptor kinase 5 (Homo sapiens) (P34947 whole entry, looked up): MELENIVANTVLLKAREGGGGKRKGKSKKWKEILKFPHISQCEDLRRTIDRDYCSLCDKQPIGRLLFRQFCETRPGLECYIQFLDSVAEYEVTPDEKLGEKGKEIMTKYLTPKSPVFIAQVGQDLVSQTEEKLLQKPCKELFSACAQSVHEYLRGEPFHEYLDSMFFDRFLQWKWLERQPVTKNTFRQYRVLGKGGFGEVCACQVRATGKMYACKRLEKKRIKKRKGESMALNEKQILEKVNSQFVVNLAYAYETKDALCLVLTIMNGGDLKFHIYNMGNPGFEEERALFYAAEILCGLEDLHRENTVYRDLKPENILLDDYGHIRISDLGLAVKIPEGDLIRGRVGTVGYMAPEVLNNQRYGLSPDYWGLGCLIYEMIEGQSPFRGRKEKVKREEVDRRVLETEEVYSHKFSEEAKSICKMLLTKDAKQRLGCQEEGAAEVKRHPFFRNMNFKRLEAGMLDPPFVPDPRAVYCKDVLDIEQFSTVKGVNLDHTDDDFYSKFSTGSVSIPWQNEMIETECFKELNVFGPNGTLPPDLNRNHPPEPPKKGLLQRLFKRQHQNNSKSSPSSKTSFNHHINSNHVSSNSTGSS

[5] = target: Phosphatidylinositol 4-phosphate 5-kinase type-1 gamma (Homo sapiens) (UniProt O60331); settings: Compound concentration 1.0 uM
Chain of Phosphatidylinositol 4-phosphate 5-kinase type-1 gamma (Homo sapiens) (O60331 whole entry): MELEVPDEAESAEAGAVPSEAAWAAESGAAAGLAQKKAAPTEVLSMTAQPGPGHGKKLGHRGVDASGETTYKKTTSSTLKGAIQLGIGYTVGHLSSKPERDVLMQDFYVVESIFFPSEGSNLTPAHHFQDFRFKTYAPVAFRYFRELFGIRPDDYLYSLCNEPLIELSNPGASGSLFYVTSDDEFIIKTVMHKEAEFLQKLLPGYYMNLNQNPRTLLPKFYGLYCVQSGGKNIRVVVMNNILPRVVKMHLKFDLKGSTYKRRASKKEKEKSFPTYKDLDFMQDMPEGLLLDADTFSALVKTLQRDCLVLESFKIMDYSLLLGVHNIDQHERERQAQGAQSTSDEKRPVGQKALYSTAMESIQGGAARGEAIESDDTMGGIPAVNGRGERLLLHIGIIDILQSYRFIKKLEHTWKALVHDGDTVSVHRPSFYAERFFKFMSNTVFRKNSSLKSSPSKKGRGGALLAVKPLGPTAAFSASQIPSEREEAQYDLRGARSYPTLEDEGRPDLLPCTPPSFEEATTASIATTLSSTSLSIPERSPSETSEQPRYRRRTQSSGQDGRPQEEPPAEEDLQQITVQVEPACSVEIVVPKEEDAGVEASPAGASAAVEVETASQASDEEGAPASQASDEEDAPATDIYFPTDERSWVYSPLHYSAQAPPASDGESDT

[6] = target: MAP kinase-interacting serine/threonine-protein kinase 2 (Homo sapiens) (UniProt Q9HBH9); settings: Compound concentration 1.0 uM
[7] = target: Ribosomal protein S6 kinase alpha-4 (Homo sapiens) (UniProt O75676); settings: Compound concentration 1.0 uM
Chain of Ribosomal protein S6 kinase alpha-4 (Homo sapiens) (O75676 whole entry, looked up): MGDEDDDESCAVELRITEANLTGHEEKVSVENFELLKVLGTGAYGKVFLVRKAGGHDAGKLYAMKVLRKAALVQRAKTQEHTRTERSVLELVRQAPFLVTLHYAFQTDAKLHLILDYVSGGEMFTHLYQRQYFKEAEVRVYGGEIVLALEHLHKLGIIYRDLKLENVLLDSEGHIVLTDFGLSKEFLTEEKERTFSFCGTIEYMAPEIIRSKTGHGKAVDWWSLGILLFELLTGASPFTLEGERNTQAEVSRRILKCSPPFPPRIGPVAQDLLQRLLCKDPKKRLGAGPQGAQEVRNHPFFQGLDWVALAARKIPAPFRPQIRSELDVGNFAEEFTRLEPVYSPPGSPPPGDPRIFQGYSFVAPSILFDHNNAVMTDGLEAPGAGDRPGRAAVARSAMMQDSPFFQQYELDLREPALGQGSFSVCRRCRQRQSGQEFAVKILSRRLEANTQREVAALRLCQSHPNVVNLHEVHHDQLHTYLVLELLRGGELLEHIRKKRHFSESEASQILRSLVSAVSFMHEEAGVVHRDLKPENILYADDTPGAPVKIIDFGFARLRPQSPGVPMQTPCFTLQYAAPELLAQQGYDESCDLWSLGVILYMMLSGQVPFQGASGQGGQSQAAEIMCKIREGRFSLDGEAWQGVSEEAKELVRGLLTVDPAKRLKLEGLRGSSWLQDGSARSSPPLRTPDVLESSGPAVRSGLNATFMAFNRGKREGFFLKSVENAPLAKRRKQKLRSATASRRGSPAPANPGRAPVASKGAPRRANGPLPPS

[8] = target: T2, Activin receptor type-1 (Homo sapiens) (UniProt Q04771); settings: Compound concentration 1.0 uM
T2 sequence (whole entry): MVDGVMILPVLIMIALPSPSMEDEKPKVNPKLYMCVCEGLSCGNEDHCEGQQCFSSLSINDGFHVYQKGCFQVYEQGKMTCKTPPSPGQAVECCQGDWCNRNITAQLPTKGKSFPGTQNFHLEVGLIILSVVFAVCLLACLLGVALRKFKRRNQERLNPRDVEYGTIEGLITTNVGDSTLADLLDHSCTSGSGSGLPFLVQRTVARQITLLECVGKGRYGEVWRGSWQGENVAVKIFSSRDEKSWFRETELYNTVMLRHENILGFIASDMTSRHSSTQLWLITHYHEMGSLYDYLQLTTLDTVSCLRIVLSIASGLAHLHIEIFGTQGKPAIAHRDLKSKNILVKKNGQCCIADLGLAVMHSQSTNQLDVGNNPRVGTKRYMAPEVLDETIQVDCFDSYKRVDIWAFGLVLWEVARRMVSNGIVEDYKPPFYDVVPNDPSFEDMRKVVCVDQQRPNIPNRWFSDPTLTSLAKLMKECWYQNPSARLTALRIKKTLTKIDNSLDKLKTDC

[9] = target: Mitogen-activated protein kinase kinase kinase 11 (Homo sapiens) (UniProt Q16584); settings: Compound concentration 1.0 uM
Chain of Mitogen-activated protein kinase kinase kinase 11 (Homo sapiens) (Q16584 whole entry, looked up): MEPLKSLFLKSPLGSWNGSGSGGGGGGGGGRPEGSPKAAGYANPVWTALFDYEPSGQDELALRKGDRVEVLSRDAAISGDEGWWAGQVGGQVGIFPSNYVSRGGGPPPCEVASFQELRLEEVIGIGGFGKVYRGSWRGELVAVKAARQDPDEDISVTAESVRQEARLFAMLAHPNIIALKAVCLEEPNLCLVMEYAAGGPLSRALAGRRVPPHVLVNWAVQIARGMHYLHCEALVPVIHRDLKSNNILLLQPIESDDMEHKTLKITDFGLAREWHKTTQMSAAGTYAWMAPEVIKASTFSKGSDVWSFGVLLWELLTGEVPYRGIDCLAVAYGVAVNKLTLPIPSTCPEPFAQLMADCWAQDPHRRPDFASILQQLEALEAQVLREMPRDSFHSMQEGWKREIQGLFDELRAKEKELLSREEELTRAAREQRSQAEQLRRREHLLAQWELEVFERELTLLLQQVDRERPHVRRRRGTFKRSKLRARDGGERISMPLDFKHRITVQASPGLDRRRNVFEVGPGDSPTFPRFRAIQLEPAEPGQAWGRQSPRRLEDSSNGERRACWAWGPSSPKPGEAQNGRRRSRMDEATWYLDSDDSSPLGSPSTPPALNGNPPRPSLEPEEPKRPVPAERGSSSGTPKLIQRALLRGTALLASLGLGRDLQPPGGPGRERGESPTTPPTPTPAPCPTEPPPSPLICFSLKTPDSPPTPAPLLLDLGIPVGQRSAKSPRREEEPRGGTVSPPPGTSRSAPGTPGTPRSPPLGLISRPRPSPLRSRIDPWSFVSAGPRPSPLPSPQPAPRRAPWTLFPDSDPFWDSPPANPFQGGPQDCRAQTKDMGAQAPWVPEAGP

[10] = target: Platelet-derived growth factor receptor beta (Homo sapiens) (UniProt P09619); settings: Compound concentration 1.0 uM
[11] = target: Tribbles homolog 2 (Homo sapiens) (UniProt Q92519); settings: Compound concentration 1.0 uM
Chain of Tribbles homolog 2 (Homo sapiens) (Q92519 whole entry): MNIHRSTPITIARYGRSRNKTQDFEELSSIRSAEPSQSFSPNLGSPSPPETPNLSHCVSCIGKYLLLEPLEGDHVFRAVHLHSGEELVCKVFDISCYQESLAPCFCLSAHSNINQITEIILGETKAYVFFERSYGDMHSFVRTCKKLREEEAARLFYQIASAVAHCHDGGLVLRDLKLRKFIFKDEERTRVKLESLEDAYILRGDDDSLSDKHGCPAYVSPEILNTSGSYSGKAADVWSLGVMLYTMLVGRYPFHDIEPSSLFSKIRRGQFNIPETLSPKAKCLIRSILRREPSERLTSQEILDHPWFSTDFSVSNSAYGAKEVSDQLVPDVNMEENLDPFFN

[12] = target: Macrophage colony-stimulating factor 1 receptor (Homo sapiens) (UniProt P07333); settings: Compound concentration 1.0 uM
Chain of Macrophage colony-stimulating factor 1 receptor (Homo sapiens) (P07333 whole entry): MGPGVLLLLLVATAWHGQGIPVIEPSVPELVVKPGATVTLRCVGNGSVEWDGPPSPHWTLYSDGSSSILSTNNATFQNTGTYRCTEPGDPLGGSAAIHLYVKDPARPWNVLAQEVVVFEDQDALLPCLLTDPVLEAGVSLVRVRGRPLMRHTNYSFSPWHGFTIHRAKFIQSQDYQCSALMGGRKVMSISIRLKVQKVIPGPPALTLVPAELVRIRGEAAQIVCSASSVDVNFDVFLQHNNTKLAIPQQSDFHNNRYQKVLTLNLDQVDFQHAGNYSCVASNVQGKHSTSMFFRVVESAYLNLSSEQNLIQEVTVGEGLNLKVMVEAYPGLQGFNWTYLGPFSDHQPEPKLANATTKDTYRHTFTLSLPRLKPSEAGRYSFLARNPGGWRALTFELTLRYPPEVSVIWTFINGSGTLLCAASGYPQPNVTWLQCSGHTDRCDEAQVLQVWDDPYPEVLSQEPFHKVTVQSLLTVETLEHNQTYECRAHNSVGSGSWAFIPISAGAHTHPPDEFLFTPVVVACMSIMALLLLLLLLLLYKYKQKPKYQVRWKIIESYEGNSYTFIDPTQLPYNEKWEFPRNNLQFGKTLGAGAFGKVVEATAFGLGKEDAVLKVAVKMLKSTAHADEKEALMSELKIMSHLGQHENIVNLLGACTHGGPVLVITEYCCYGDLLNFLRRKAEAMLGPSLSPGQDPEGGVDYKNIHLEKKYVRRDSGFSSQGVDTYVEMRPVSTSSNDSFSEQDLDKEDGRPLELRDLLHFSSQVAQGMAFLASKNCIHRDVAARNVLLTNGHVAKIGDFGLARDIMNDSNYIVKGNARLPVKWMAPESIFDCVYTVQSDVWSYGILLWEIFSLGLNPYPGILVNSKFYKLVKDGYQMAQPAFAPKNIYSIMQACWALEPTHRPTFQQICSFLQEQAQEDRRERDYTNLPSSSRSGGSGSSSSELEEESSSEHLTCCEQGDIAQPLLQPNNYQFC

[13] = target: T3, Inhibitor of nuclear factor kappa-B kinase subunit alpha (Homo sapiens) (UniProt O15111); settings: Compound concentration 1.0 uM
T3 sequence (whole entry): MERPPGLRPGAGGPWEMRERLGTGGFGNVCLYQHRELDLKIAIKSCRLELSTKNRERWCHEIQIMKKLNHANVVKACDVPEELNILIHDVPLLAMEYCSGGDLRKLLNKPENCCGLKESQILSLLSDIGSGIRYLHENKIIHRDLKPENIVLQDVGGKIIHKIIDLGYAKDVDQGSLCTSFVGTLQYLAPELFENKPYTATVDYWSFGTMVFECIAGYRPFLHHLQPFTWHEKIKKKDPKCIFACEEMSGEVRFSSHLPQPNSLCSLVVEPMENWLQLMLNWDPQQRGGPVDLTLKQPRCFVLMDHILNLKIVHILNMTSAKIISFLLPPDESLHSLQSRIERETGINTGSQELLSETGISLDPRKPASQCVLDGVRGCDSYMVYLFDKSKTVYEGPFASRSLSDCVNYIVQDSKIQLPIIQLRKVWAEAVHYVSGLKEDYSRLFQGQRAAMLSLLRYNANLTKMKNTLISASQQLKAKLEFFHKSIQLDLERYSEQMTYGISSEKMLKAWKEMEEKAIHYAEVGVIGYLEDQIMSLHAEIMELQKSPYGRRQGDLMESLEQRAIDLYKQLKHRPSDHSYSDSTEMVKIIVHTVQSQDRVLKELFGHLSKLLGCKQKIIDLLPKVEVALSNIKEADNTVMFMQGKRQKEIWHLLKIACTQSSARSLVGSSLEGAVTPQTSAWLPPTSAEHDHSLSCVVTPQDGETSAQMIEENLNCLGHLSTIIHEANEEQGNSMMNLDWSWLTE

Chain of Wee1-like protein kinase (Homo sapiens) (P30291 whole entry, looked up): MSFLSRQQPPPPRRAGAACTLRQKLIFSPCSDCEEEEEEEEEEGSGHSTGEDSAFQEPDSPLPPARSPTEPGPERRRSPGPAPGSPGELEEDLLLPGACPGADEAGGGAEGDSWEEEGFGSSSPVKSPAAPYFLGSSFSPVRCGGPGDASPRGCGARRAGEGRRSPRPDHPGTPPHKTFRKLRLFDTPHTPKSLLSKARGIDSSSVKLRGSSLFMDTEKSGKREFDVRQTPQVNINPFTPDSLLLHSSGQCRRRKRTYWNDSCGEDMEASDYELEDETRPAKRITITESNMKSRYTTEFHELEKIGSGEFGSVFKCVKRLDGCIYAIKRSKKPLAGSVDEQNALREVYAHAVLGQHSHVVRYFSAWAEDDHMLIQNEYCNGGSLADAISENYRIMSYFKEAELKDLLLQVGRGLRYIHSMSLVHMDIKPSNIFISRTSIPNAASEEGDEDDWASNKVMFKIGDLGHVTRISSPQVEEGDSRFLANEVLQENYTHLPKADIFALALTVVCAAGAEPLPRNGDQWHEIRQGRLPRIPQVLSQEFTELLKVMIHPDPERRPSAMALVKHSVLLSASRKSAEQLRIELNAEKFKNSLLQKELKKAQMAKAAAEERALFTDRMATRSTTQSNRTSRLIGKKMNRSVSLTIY

Cc1nc(C2CCN(C(=O)c3ccc(OC(F)(F)F)cc3N)CC2)c2ncc(N3CCN(C)CC3)cc2n1 [BAY-693]
inactive: inhibition [1] -2.04%

CN1CCN(c2cnc3c(C4CCN(C(=O)c5ccc(OC(F)(F)F)cc5N)CC4)ncnc3c2)CC1 [BAY-885]
inactive: % residual kinase activity [2] 108% | % residual kinase activity [3] 98% | % residual kinase activity [4] 85% | % residual kinase activity [5] 93% | % residual kinase activity [6] 99% | % residual kinase activity [7] 107% | % residual kinase activity [8] 98% | % residual kinase activity [9] 112% | % residual kinase activity [10] 107% | % residual kinase activity [11] 109% | % residual kinase activity [12] 118% | % residual kinase activity [13] 99%
